Tests used:
[1] = test system: high-fat diet-induced obesity model mice; test: Blood glucose lowering effect in mouse; assay type: in vivo; settings: HPH-15 10 mg/kg or 100 mg/kg orally once a day for 28 days, compared with metformin 300 mg/kg
Description: In Example 7, mice were used instead of the cells, which were used up to Example 6, to examine the blood glucose lowering effect of HPH-15.
Four-week-old […] mice (CLEA Japan, Inc.) were fed a high-fat diet HFD (CLEA Japan, Inc.) for two months to prepare high-fat diet-induced obesity model mice. Then, HPH-15 (10 mg/kg or 100 mg/kg, […]) dissolved in olive oil (Kenei Pharmaceutical Co., Ltd.) or metformin (300 mg/kg, […]) was orally administered once a day for 28 days. Olive oil alone was administered as a control. Body weight, random blood glucose levels, and fasting blood glucose levels were measured every 7 days using a blood glucose meter Glutest Aqua (Sanwa Kagaku Kenkyusho Co., Ltd.). Fasting blood glucose levels were measured after 12-hour fasting. Note that, during the drug administration period, the mice were fed the high-fat diet HFD. The results of random blood glucose levels (mg/dl) are shown in FIG. 7A, and the results of fasting blood glucose levels (mg/dl) are shown in FIG. 7B.

AMPK = test: Activation of p-AMPK in mouse tissue (Western blotting); assay type: in vivo
Description: High-fat diet-induced obesity model mice were prepared in the same manner as in Example 7. Then, HPH-15 (10 mg/kg or 100 mg/kg, […]) dissolved in olive oil or metformin (300 mg/kg, […]) was orally administered once a day for 28 days. Olive oil alone was administered as a control. After 28 days of administration of each, equal amounts (50 mg) of tissue pieces were collected from the liver, subcutaneous fat, and muscle tissues of the high-fat diet-induced obesity model mice, transferred to 1.5 mL Eppendorf tubes, and washed twice with PBS. After washing, the tissue pieces were transferred to BIOMASHER II, […] of RIPA buffer was added, and the tissue pieces were homogenized on ice. After homogenization, the tissue pieces were centrifuged (10,000 rpm, 4° C., 5 min) and the supernatant was obtained as a protein solution. The concentration of the proteins thus obtained was corrected based on the protein concentration measured by the BCA method using bicinchoninic acid (BCA), thereby preparing samples for Western blotting. Western blotting was performed in the same manner as in Example 1 described above, and the amount of p-AMPK/AMPK was calculated.

[2] = test system: high-fat diet-induced obesity model mice; test: Glucose loading test in mouse; assay type: in vivo; settings: HPH-15 10 mg/kg or 100 mg/kg orally, 28 days; glucose 0.5 g/kg intraperitoneally; compared to olive oil
Description: The effect of HPH-15 on the change in blood glucose levels in the presence of glucose was examined using mice.
High-fat diet-induced obesity model mice were prepared in the same manner as in Example 7. Then, HPH-15 (10 mg/kg or 100 mg/kg, […]) dissolved in olive oil or metformin (300 mg/kg, […]) was orally administered once a day for 28 days. Olive oil alone was administered as a control. After 28 days of administration of each, glucose was intraperitoneally administered (0.5 g/kg) to the high-fat diet-induced obesity model mice, and blood glucose levels (mg/dl) were measured at 0, 15, 30, 60, 90, and 120 minutes after administration using a blood glucose meter Glutest Aqua (Sanwa Kagaku Kenkyusho Co., Ltd.).

[3] = test system: myotube cell model L6-GLUT4myc; test: Cytotoxicity (MTT reagent); assay type: cell-based, rat; settings: HPH-15 1 μM, 10 μM or 50 μM, 24 hours
Description: It was examined whether using HPH-15 as a drug caused any cytotoxicity.
The myotube cell model L6-GLUT4myc, the liver cell model HepG2 cells, and the adipocyte model 3T3-L1 used in Example 1 were each seeded onto a 24-well plate (1×10^5 cells/well, […] of culture liquid) and cultured overnight. Then, a DMSO solution (1%) containing HPH-15 (final concentration: 1 μM, 10 μM or 50 μM) was added to the medium, and the cells were further cultured for 24 hours. As a control, only DMSO solution (1%) was added, and the cells were cultured for 24 hours in the same manner. Next, […] of MTT reagent (3-(4,5-dimethyl-2-thiazolyl)-2,5-diphenyl-2H-tetrazolium bromide: 1.1 mg/mL: Dojindo Laboratories) was added to each well, and the cells were further cultured for 4 hours. After collecting the precipitated crystals, the supernatant was removed and DMSO ([…]) was added to completely dissolve the crystals. Cytotoxicity was evaluated by measuring the absorbance (550 nm) of the solution and determining the number of viable cells.

[4] = test system: high-fat diet-induced obesity model mice; test: Blood test value in mouse; assay type: in vivo; settings: HPH-15 10 or 100 mg/kg orally 28 days
Description: High-fat diet-induced obesity model mice were prepared in the same manner as in Example 7. Then, […] of olive oil (Kenei Pharmaceutical Co., Ltd.) as a solvent, HPH-15 (10 mg/kg or 100 mg/kg, […]) dissolved in olive oil, or metformin (300 mg/kg, […]) was orally administered once a day for 28 days. After administration of each for 28 days, the blood from the high-fat diet-induced obesity model mice was examined at the Kumamoto Mouse Clinic (Kumamoto National University Corp.).

herpes = settings: Non-Patent Literature 2; cited from earlier work
[5] = test system: liver cell model HepG2 cells; test: Neutral fat accumulation (Oil Red O) in presence of glucose; assay type: cell-based, human; settings: HPH-15 50 μM vs metformin 2 mM, glucose 100 mM, 24 hours
Description: Many patients with type 2 diabetes have fat accumulation in the visceral organs.
The liver cell model HepG2 cells used in Example 1 were seeded onto a 24-well plate (1×10^5 cells/well, […] of culture liquid) and cultured overnight. Then, a DMSO solution (1%) containing HPH-15 (final concentration: 50 μM) or metformin (final concentration: 2 mM) was added to the medium, and the cells were further cultured for 24 hours. As a control, only DMSO solution (1%) was added, and the cells were cultured for 24 hours in the same manner. Next, glucose (100 mM) was added to the medium, and the cells were further cultured for 24 hours. Then, the cells were fixed using 4% paraformaldehyde for 10 minutes. The fixed cells were added with an Oil Red O staining solution (Nacalai Tesque, Inc.) and shaken for 15 minutes. After washing with a 60% aqueous isopropanol solution, cell images were observed using a microscope. Further, the amount of neutral fat in the cells was determined by dissolving the stained cells in 100% isopropanol and measuring the absorbance (492 nm).

Smad 3 = settings: Non-Patent Literature 3; cited from earlier work
[6] = HPH-15 10 or 100 mg/kg orally 28 days
[7] = compared with metformin 300 mg/kg

CC(C)(C)SCCNC(=S)c1cccc(C(=S)NCCSC(C)(C)C)n1 [HPH-15]
fasting blood glucose levels ([1]; 12-hour fasting): had the effect of lowering
random blood glucose levels [1]: had the effect of lowering
p-AMPK/AMPK in the liver (AMPK; [6]): increased
p-AMPK/AMPK in the muscle (AMPK; [6]): increased
p-AMPK/AMPK in the subcutaneous fat (AMPK; [6]): increased
AMPK activation in the subcutaneous fat as compared to metformin (AMPK; HPH-15 10 or 100 mg/kg vs metformin 300 mg/kg, orally 28 days): twice or more as compared to metformin
glucose metabolism (blood glucose levels, IAUC) after glucose loading [2]: significantly improved
cytotoxicity (number of viable cells) [3]: no cytotoxicity was confirmed
toxicity (blood test) [4]: No toxicity was observed
other blood test items ([4]; compared to olive oil): no differences were observed
ALT value (blood test) [4, 7]: lower than that of metformin
AST value (blood test) [4, 7]: significantly lower than those of metformin
LD value (blood test) [4, 7]: significantly lower than those of metformin
anti-herpes activity (herpes): has anti-herpes activity
neutral fat accumulation [5]: had an inhibitory effect on neutral fat accumulation in the presence of high glucose in the same manner as metformin
phosphorylation of Smad 3 induced by TGF-β (Smad 3): reduces the phosphorylation of Smad 3 induced by TGF-β
